Assay results reported in paper PMC9053591 (RSC Advances, 2020).
Several values for one entry are separate records, joined by “and”; a condition that tells them apart may be missing. Identical values can stand only once. Counter-ions that a name gives are not always drawn.

Legend:
[1] = target: AChE from electric eel (Electrophorus electricus, UniProt O42275); assay: AChE inhibition, Ellman's method; format: biochemical; conditions: IC50 ± SD (μM) AChE, means ± SD of three experiments
[2] = target: BuChE from equine serum (Equus caballus, UniProt P81908); assay: BuChE inhibition, Ellman's method; format: biochemical
[3] = test system: scopolamine induced mice model of dementia; assay: Elevated plus maze; format: in vivo; conditions: n = 6, SEM
[4] = target: AChE (Electrophorus electricus, UniProt O42275); assay: Kinetic characterization of AChE inhibition, Lineweaver–Burk plot; format: biochemical; conditions: Lineweaver–Burk reciprocal plots; compound at 2, 6 and 8 μM
[5] = target: T1, Aβ1-42 (Homo sapiens, UniProt P05067); assay: Confocal laser scanning microscopy of Aβ1-42 aggregation inhibition; format: biochemical; conditions: Aβ1-42 co-incubated with compound, 48 h, 37 °C
[6] = target: T1, Aβ1-42; assay: TEM study of inhibition of Aβ1-42 fibril formation; format: biochemical; conditions: Aβ1-42 50 μM, compound 50 μM, 37 °C, 48 h
[7] = test system: scopolamine induced mice; assay: Social recognition test, scopolamine induced mice; format: in vivo
[8] = test system: SH-SY5Y cells; assay: In vitro cytotoxicity, MTT assay; format: cell-based, human; conditions: 1 and 5 μM, 24 h, MTT
[9] = In vitro cytotoxicity, MTT assay; format: cell-based, human; conditions: human, SH-SY5Y cells
[10] = test system: SH-SY5Y cells; assay: Neuroprotection against H2O2-induced death, MTT assay; conditions: 200 μM H2O2 for 24 h

Chain of BuChE from equine serum (P81908 whole entry): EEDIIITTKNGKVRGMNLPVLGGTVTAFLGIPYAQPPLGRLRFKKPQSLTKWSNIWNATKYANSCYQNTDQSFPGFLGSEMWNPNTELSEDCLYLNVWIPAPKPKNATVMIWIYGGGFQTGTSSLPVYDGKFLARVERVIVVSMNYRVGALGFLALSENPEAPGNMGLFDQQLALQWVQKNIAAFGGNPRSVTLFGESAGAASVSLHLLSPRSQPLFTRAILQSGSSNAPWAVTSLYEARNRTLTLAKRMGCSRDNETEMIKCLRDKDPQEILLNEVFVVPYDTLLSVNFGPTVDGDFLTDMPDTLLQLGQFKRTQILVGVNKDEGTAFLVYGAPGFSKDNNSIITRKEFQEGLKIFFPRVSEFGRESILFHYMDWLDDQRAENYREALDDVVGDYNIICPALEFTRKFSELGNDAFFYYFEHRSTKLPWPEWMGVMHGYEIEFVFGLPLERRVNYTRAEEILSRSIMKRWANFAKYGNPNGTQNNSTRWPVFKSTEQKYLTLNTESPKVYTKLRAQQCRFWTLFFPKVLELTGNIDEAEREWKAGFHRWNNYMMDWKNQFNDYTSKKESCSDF
Chain of AChE from electric eel (O42275 24-633): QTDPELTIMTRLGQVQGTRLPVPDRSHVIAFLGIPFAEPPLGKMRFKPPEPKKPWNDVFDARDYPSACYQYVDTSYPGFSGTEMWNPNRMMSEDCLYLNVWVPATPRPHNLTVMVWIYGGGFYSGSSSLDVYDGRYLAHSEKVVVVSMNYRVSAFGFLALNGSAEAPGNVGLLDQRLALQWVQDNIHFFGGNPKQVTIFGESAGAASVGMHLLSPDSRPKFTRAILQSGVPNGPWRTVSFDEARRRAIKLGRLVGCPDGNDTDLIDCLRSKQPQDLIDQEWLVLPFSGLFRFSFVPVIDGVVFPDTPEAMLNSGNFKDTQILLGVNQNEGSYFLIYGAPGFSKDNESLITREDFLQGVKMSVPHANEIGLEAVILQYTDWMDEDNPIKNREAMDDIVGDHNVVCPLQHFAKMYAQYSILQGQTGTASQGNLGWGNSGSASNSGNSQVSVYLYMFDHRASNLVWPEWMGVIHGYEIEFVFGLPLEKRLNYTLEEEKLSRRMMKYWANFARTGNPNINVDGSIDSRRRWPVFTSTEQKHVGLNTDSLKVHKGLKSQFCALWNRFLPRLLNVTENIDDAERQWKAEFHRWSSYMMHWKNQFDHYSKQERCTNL
T1 sequence (P05067 672-713): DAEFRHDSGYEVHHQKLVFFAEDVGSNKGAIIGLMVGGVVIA
Chain of AChE (O42275 24-633): as the sequence (O42275 24-633) above

Row | Compound | IC50 [1] | IC50 [2] [µM] | other results
1 | COc1ccc(N2CCN(CCC(=O)Nc3nc4ccc(S(C)(=O)=O)cc4s3)CC2)cc1 [Compound 9, N-(6-Methanesulfonyl-benzothiazol-2-yl)-3-[4-(4-methoxy-phenyl)-piperazin-1-yl]-propionamide] | 14.5 ± 1.03 µM | > 100 | –
2 | COc1cc2c(cc1OC)C(=O)C(CC1CCN(Cc3ccccc3)CC1)C2 (centres unmarked) [Donepezil, reference compound] | – | – | Transfer latency (TL) ([3]; scopolamine 3 mg kg−1 + donepezil 5 mg kg−1 i.p., 7 days): 15.08 ± 1 s
3 | CS(=O)(=O)c1ccc2nc(NC(=O)CCN3CCN(Cc4ccccc4)CC3)sc2c1 [Compound 10, 3-(4-Benzyl-piperazin-1-yl)-N-(6-methanesulfonyl-benzothiazol-2-yl)-propionamide] | 7.83 µM | > 100 | –
4 | CS(=O)(=O)c1ccc2nc(NC(=O)CCN3CCN(c4ccccc4)CC3)sc2c1 [Compound 4, N-(6-Methanesulfonyl-benzothiazol-2-yl)-3-(4-phenyl-piperazin-1-yl)-propionamide] | 24.1 ± 0.721 µM | > 100 | –
5 | CS(=O)(=O)c1ccc2nc(NC(=O)CCN3CCN(C(=O)OCc4ccccc4)CC3)sc2c1 [Compound 15, 4-[2-(6-Methanesulfonyl-benzothiazol-2-ylcarbamoyl)-ethyl]-piperazine-1-carboxylic acid benzyl ester] | 19.5 ± 0.452 µM | > 100 | –
6 | CS(=O)(=O)c1ccc2nc(NC(=O)CCN3CCN(c4ncccn4)CC3)sc2c1 [Compound 13, N-(6-Methanesulfonyl-benzothiazol-2-yl)-3-(4-pyrimidin-2-yl-piperazin-1-yl)-propionamide] | 10.9 ± 0.657 µM | > 100 | –
7 | CS(=O)(=O)c1ccc2nc(NC(=O)CCN3CCN(c4ccccn4)CC3)sc2c1 [Compound 12, N-(6-Methanesulfonyl-benzothiazol-2-yl)-3-(4-pyridin-2-yl-piperazin-1-yl)-propionamide] | 2.31 µM and 2.32 µM | > 100 | Type of AChE inhibition [4]: uncompetitive type of inhibition; Aβ1-42 aggregation by confocal laser scanning microscopy (ThT fluorescence) [5]: proficiently prevents Aβ1-42 fibril formation; Aβ1-42 fibril formation by TEM [6]: small dissociated aggregates and no characteristic fibrils of Aβ1-42; T2/T1 ratio (second interaction trial/first interaction trial) ([7]; scopolamine + compound 20 mg kg−1, mean SEM of 6 animals): 0.377 ± 0.00072; Cytotoxicity [8]: no cytotoxicity; viability at 24 h, 10 µM [9]: > 67%; Transfer latency (TL) ([3]; scopolamine 3 mg kg−1 + compound 10 mg kg−1 i.p., 7 days): 12.81 ± 2.08 s; Transfer latency (TL) ([3]; scopolamine 3 mg kg−1 + compound 20 mg kg−1 i.p., 7 days): 12.62 ± 2.60 s
8 | CS(=O)(=O)c1ccc2nc(NC(=O)CCN3CCN(c4ccc(C(F)(F)F)cc4)CC3)sc2c1 [Compound 17, N-(6-Methanesulfonyl-benzothiazol-2-yl)-3-[4-(4-trifluoromethyl-phenyl)-piperazin-1-yl]-propionamide] | 26.4 ± 0.551 µM | > 100 | –
9 | CS(=O)(=O)c1ccc2nc(NC(=O)CCN3CCN(c4ccc(Cl)cc4)CC3)sc2c1 [Compound 6, 3-[4-(4-Chloro-phenyl)-piperazin-1-yl]-N-(6-methanesulfonyl-benzothiazol-2-yl)-propionamide] | 13 ± 0.813 µM | > 100 | –
10 | CS(=O)(=O)c1ccc2nc(NC(=O)CCN3CCN(c4ccc([N+](=O)[O-])cc4)CC3)sc2c1 [Compound 7, N-(6-Methanesulfonyl-benzothiazol-2-yl)-3-[4-(4-nitro-phenyl)-piperazin-1-yl]-propionamide] | 11.3 ± 1.8 µM | > 100 | –
11 | Cc1ccc(N2CCN(CCC(=O)Nc3nc4ccc(S(C)(=O)=O)cc4s3)CC2)cc1 [Compound 8, N-(6-Methanesulfonyl-benzothiazol-2-yl)-3-(4-p-tolyl-piperazin-1-yl)-propionamide] | 20.2 ± 1.44 µM | > 100 | –
12 | CN1[C@@H]2C[C@@H](OC(=O)[C@H](CO)c3ccccc3)C[C@H]1[C@@H]1O[C@@H]12 [scopolamine, Scopolamine hydrobromide, reference compound] | – | – | T2/T1 ratio (second interaction trial/first interaction trial) ([7]; scopolamine 3 mg kg−1 alone, mean SEM of 6 animals): 1.103 ± 0.037; Transfer latency (TL) ([3]; scopolamine 3 mg kg−1 i.p. alone, retention trial): 22.00 ± 0.81 s
13 | CS(=O)(=O)c1ccc2nc(NC(=O)CCN3CCN(c4ccc(F)cc4)CC3)sc2c1 [Compound 5, 3-[4-(4-Fluoro-phenyl)-piperazin-1-yl]-N-(6-methanesulfonyl-benzothiazol-2-yl)-propionamide] | 18.3 ± 0.777 µM | > 100 | –
14 | COc1cc(/C=C/C(=O)CC(=O)/C=C/c2ccc(O)c(OC)c2)ccc1O [Curcumin, reference compound] | – | – | Aβ1-42 fibril formation by TEM [6]: small dissociated aggregates and no characteristic fibrils of Aβ1-42
15 | CS(=O)(=O)c1ccc2nc(NC(=O)CCN3CCN(Cc4ccc5c(c4)OCO5)CC3)sc2c1 [Compound 16, 3-(4-Benzo[1,3]dioxol-5-ylmethyl-piperazin-1-yl)-N-(6-methanesulfonyl-benzothiazol-2-yl)-propionamide] | 5.24 µM | > 100 | –
16 | CS(=O)(=O)c1ccc2nc(NC(=O)CCN3CCN(C(c4ccccc4)c4ccccc4)CC3)sc2c1 [Compound 11, 3-(4-Benzhydryl-piperazin-1-yl)-N-(6-methanesulfonyl-benzothiazol-2-yl)-propionamide] | 4.54 µM and 4.55 µM | > 100 | –
17 | OO [Compound H2O2, hydrogen peroxide] | – | – | Cell viability with H2O2 alone [10]: 54.90%
18 | CS(=O)(=O)c1ccc2nc(NC(=O)CCN3CCN(C(=O)c4ccco4)CC3)sc2c1 [Compound 14, 3-[4-(Furan-2-carbonyl)-piperazin-1-yl]-N-(6-methanesulfonyl-benzothiazol-2-yl)-propionamide] | 14.6 ± 0.438 µM | > 100 | –
